Assay results published in patent US20040110825A1, “Method for treating sepsis” (priority 2003, published 2004).
Each block holds one compound with its values, some of them ahead of it.

Legend:
[1] = test system: patients with severe sepsis; assay: Phase 2 multicenter, double-blind, placebo-controlled trial: 28-day all-cause mortality; type: in vivo, human; settings: for effect on mortality compared to placebo: administration started within 24 hours after first organ failure, continued up to 7 days
Description: FIG. 3 represents a plot of 28-day mortality by treatment (Y-axis) against time after first organ failure at which a sPLA2 inhibitor compound of formula I was administered (X-axis). […] Administration of a “high dose” of sPLA2 inhibitor compound of formula (I), at the same time frame (i.e., less than 12 hours after first organ failure) was associated with a mortality of 5.4% (bar 3). […] The efficacy of a sPLA2 inhibitor administered at 0-24 hours, preferably 0-12 hours, after first organ failure is particularly significant when a “high dose” sPLA2 inhibitor compound is administered.
The data were analyzed using the Cochran-Mantel-Haenszel test adjusted for the trial primary stratification factors at a two-sided 5% significance level. The overall treatment effect as well as for pair-wise comparisons were analyzed.
Study participants were included in the study if they met all of the criteria listed below. It is anticipated that almost all patients meeting these criteria would have been in an acute care area of the hospital such as an intensive care unit, step-down unit, emergency ward, or recovery room. The events satisfying these inclusion criteria must have been attributable to the onset of sepsis and not attributable to an underlying disease process or to the effects of concomitant therapy.
[3] Have had at least one of the following sepsis-induced organ failures within the 24-hour time period immediately preceding entry into the study:
The mortality data from the study are shown in diagrams 1 through 3.

melting point: 199 to 200 °C
Structure (SMILES): NC(=O)C1CCCc2c1c1cc(OCCCC(=O)O)ccc1n2Cc1ccccc1 (stereo not shown)

melting point: 200 to 201 °C
Structure (SMILES): NC(=O)C1CCCc2c1c1cc(OCCCP(=O)(O)O)ccc1n2Cc1ccccc1 (stereo not shown)

Continued, compound first:

Structure (SMILES): CCCCCCCCc1cc2c(cc1OCCCP(=O)(O)O)c1c(n2Cc2ccccc2)CCCC1C(N)=O (stereo not shown)
melting point: 160 to 162 °C

Structure (SMILES): CCc1cc2c(cc1OCCCP(=O)(O)O)c1c(n2Cc2ccccc2)CCCC1C(N)=O (stereo not shown)
melting point: 235 to 238 °C (dec.)

Structure (SMILES): COc1ccc2c(c1)c1c(n2Cc2ccccc2)CCCC1C(N)=O (stereo not shown)
melting point: 154 to 156 °C

Structure (SMILES): COc1cc(OC)c2c3c(n(Cc4ccccc4)c2c1)CCCC3C(=O)NN (stereo not shown)
melting point: 189 to 190 °C

Structure (SMILES): CCc1c(C(=O)C(N)=O)c2c(OCC(=O)O)cccc2n1Cc1ccccc1 [compound (Vb)]
effect on mortality compared to placebo [1]: significant reduction in mortality | effect on mortality compared to placebo ([1]; listed as LY315920): statistically significant reduction in mortality | 28 day mortality by treatment ([1]; high dose (target 800 ng/mL), administered between 12 and 24 hours after first organ failure, FIG. 3 bar 6, placebo 35.1%): 31.5% | 28 day mortality by treatment ([1]; high dose (target plasma concentration 800 ng/mL), administered less than 12 hours after first organ failure, FIG. 3 bar 3, placebo 42.9%): 5.4% | 28 day mortality by treatment ([1]; low dose (target 200 ng/mL), administered between 12 and 24 hours after first organ failure, FIG. 3 bar 5, placebo 35.1%): 38.2% | 28 day mortality by treatment ([1]; low dose (target plasma concentration 200 ng/mL), administered less than 12 hours after first organ failure, FIG. 3 bar 2, placebo 42.9%): 19.2% | reduction in mortality, significance ([1]; low dose and high dose administered at 0-12 hours after first organ failure, Cochran-Mantel-Haenszel test, two-sided 5%): statistically significant
